US12590118B2, “Salt and crystal form of steroid derivative regulator” (Shanghai Hansoh Biomedical Co., Ltd., priority 2019, dated 2026)
≈ marks a conversion by molar mass, not a printed value.

Assays:
Format in all cases: physicochemical
[1] = Hygroscopicity experiment (DVS); settings: for hygroscopicity (in words): DVS; for Hygroscopicity (25° C./80% RH): DVS vapour sorption weight gain at 80% RH
Protocol: The hygroscopicity of crystal forms I, II and III of the free base of Example 40 under different relative humidity conditions was investigated, so as to provide a basis for screening of the crystal form and salt of the compound, production and storage.
10 to 15 mg of the free base of Example 40 was placed in the sample chamber of DVS. DVS was carried out, and the vapour sorption weight gain percentage of the compound at 80% RH was recorded at the same time.

[2] = Competitive experiment of different crystal forms of the free base; settings: 40° C.
Protocol: The stability among crystal forms I, II and III of the free base of Example 40 was investigated, so as to select the stable crystal form.
Multiple portions of about 20 mg of crystal forms I, II and III of the free base of Example 40 were accurately weighed, and mixed in pairs in equal amounts. Methyl tert-butyl ether and n-heptane were added respectively, and the resulting mixture was stirred at 40° C. for 7 days. The mixture was centrifuged at high speed, the supernatant was removed, and the resulting solid precipitate was vacuum dried in an oven at 40° C. and characterized by XRPD.

[3] = Solubility experiment (thermodynamic solubility at 37° C.); settings: 24 hours
Protocol: The solubility of the free base and salt of the compound in water, Fasted State Simulated Gastric Fluid (FaSGF), Fasted State Simulated Intestinal Fluid (FaSSIF) and Fed State Simulated Intestinal Fluid (FeSSIF) was compared, so as to provide a basis for evaluating the druggability of the crystal form and salt.
About 2 to 3 mg of crystal forms I, II and III of the free base of Example 40 were weighed, suspended in 1 mL of Fasted State Simulated Gastric Fluid (FaSSGF), Fasted State Simulated Intestinal Fluid (FaSSIF), Fed State Simulated Intestinal Fluid (FeSSIF) and pure water respectively, and shaked for 24 hours. Thermodynamic solubility of the compound at 37° C. was determined using HPLC by external standard method.

| SMILES | hygroscopicity (in words) [1] | Hygroscopicity (25° C./80% RH) [1] [%] | solubility in n-heptane (in words) [2] | Solubility ([3]; FaSSGF) [µg/mL] | Solubility ([3]; FaSSIF) [µg/mL] | Solubility ([3]; FeSSIF) [µg/mL] | Solubility ([3]; Water) [µg/mL] |
| --- | --- | --- | --- | --- | --- | --- | --- |
| C[C@@H]1C[C@H](C(=O)Cn2ccc(C#N)n2)[C@@]2(C)CC[C@H]3[C@@H](CC[C@@H]4C[C@](C)(O)CC[C@@H]43)[C@H]12 [Crystal form II, 1-(2-((3R,5R,8R,9R,10S,13S,14S,15R,17S)-3-Hydroxy-3,13,15-trimethylhexadecahydro-1H-cyclopenta[a]phenanthren-17-yl)-2-oxoethyl)-1H-pyrazole-3-carbonitrile] | no hygroscopicity | 0.03 | almost insoluble | <1 | 3.705 (≈ 8.75 µM) | 18.495 (≈ 43.7 µM) | <1 |
| C[C@@H]1C[C@H](C(=O)Cn2ccc(C#N)n2)[C@@]2(C)CC[C@H]3[C@@H](CC[C@@H]4C[C@](C)(O)CC[C@@H]43)[C@H]12 [Crystal form III, 1-(2-((3R,5R,8R,9R,10S,13S,14S,15R,17S)-3-Hydroxy-3,13,15-trimethylhexadecahydro-1H-cyclopenta[a]phenanthren-17-yl)-2-oxoethyl)-1H-pyrazole-3-carbonitrile] | no hygroscopicity | 0.10 | almost insoluble | <1 | 4.914 (≈ 11.6 µM) | 28.166 (≈ 66.5 µM) | <1 |
